Assays:
[1] = tested on: recombinant Heliothis virescens ryanodine receptor (expressed in Sf9 cells); assay: Calcium release assay, Sf9 cells transiently or stably expressing Heliothis virescens ryanodine receptor (Fura-2); type: cell-based; details: Cpd 5 3 μM; Sf9 transiently expressing H. virescens ryanodine receptor, 72 hr post-transfection; FIG. 4
Method: SF9 cells were grown at 27 degrees C. in a Corning 125 ml polycarbonate Erlenmeyer flask to a density of 3.1 million cells per ml in SF900-II serum free media (Gibco catalog no. 10902-088, Invitrogen™, Carlsbad, Calif.). One million cells were transferred to one well of a Corning 6-well, flat bottom cell culture dish (Corning Inc., Acton, Mass., catalog no. 3516). SF900-II media was used to bring the final volume in the dish to 2 ml and the cells were incubated at 27 degrees C. for 21 h. Following the incubation the media was aspirated from the dish and replaced with 1 ml of SF900-II media pre-warmed to 27 degrees C.
In the case of the vectors containing the Cre recognition elements, the transfection solution was mixed in a 1.5 ml microfuge tube by combining 5 ug of pHE7 plasmid, 5 ug of pMLS104 Cre plasmid and 0.5 ug of lacZ reporter plasmid, 15 ug of cellfectin reagent (Invitrogen cat. #10362-010) and SF900-II serum free media (Gibco catalog #10902-088, Invitrogen™, Carlsbad, Calif.) in a total volume of 500 ul. The solution was incubated for 1 hour at room temperature just prior to the transfection.
The transfection was accomplished by adding the transfection solution drop-wise to the dish and incubating 4 h at room temperature with gentle rocking. After the 4 h incubation the media was replaced with 2 ml of SF900-II media pre-warmed to 27 degrees C. and the cells were incubated 3 days at 27 degrees C.
Several drops of a suspension of recombinant Spodoptera frugiperda cell line, Sf9, transiently expressing insect ryanodine receptors were placed on a poly-L-lysine-coated coverslip and allowed to attach. Cells were then rinsed in physiological saline having the following composition (mM): NaCl 130; KCl 5.4; MgCl2 1.2; CaCl2 1.0; NaHCO3 4.2; NaH2P04 7.3; Glucose 10; Sucrose 63; MES 20; pH 6.3. Cells were then bathed in physiological saline containing the calcium sensitive fluoroprobe, Fura-2 AM (2 μM), and Pluronic F127 (0.002%) for 30 min. Cells were rinsed in standard physiological saline for at least 15 min prior to testing. […]
For studies involving the stable recombinant Spodoptera frugiperda cell line, Sf9, (other cell lines could also be used such as Sf21, S2, etc) expressing an insect ryanodine receptor from Drosophila melanogaster, or Heliothis virescens (alternatively receptors from other species such as Myzus persicae, Peregrinus maidis, Aphis gossypii, etc) were grown in T75 (or other appropriate sized) flasks in supplemented Grace's insect medium. […] After a 30 minute equilibration period the cell plate was tested using a Molecular Devices' FlexStation™ system with dual wavelength excitation (340 and 380 nm) and fluorescence emission measured at 510 nm. […]

[2] = molecular target: T1, recombinant Drosophila melanogaster ryanodine receptors (expressed in Sf9 cells) (Drosophila melanogaster, UniProt Q24498); type: cell-based; details: receptor expressed in Sf9 cells
T1 construct: expressed in transfected cells
Method: The Spodoptera frugiperda cell line Sf9 used for transfection studies, was maintained in Sf-900 II SFM medium (Invitrogen Life Technologies™, Carlsbad, Calif.) in T-75 flasks incubated at 27° C. It is understood that those skilled in the art might choose alternative cell types such as the Spodoptera frugiperda cell line Sf21 or the Drosophila cell line S2. For the purpose of general handling and propagation, cells were suspended through scraping or agitation and a volume of cell suspension was added to each well of a poly-L-lysine coated 96-well, glass-bottom plate so as to provide 70-80% confluence. Cells were maintained in an incubator at 27° C. until testing.
SF900-II media was used to bring the final volume in the dish to 2 ml and the cells were incubated at 27 degrees C. for 21 h. Following the incubation the media was aspirated from the dish and replaced with 1 ml of SF900-II media pre-warmed to 27 degrees C.
The transient transfection was carried out following an InsectSelect BSD System manual (Invitrogen Life Technologies™, Carlsbad, Calif.). […] The transfection was accomplished by adding the transfection solution drop-wise to the dish and incubating 4 h at room temperature with gentle rocking. […]
(§1) Several drops of a suspension of recombinant Spodoptera frugiperda cell line, Sf9, transiently expressing insect ryanodine receptors were placed on a poly-L-lysine-coated coverslip and allowed to attach. Cells were then rinsed in physiological saline having the following composition (mM): NaCl 130; KCl 5.4; MgCl2 1.2; CaCl2 1.0; NaHCO3 4.2; NaH2P04 7.3; Glucose 10; Sucrose 63; MES 20; pH 6.3. Cells were then bathed in physiological saline containing the calcium sensitive fluoroprobe, Fura-2 AM (2 μM), and Pluronic F127 (0.002%) for 30 min. Cells were rinsed in standard physiological saline for at least 15 min prior to testing. Testing was conducted in standard physiological saline, as the cell lines are devoid of functional voltage-gated calcium channels.
Cell-attached coverslips were placed in a sealed chamber with physiological saline continuously perfused across the cells using a peristaltic pump. Test compounds solubilized in physiological saline were applied by switching the perfusate source.
(§2) For studies involving the stable recombinant Spodoptera frugiperda cell line, Sf9, (other cell lines could also be used such as Sf21, S2, etc) expressing an insect ryanodine receptor from Drosophila melanogaster, or Heliothis virescens (alternatively receptors from other species such as Myzus persicae, Peregrinus maidis, Aphis gossypii, etc) were grown in T75 (or other appropriate sized) flasks in supplemented Grace's insect medium. Cells were maintained in an incubator at 22° C. until testing. Cells were suspension-loaded with the calcium sensitive fluoroprobe, Fura-2 AM (1-2 μM) and Pluronic F127 (0.002%) in culture medium for 30 minutes under agitation. Cells were then centrifuged and the pellet resuspended in physiological saline having the following composition (mM): NaCl 130; KCl 5.4; MgCl2 1.2; CaCl2 1.0; NaHCO3 4.2; NaH2P04 7.3; Glucose 10; Sucrose 63; MES 20; pH 6.3 at approximately 150,000-200,000 cells per well (96-well plate). After a 30 minute equilibration period the cell plate was tested using a Molecular Devices' FlexStation™ system with dual wavelength excitation (340 and 380 nm) and fluorescence emission measured at 510 nm. Test and control samples were added using integrated fluidics and the intracellular calcium monitored over a 2 minute period.

[3] = tested on: control cells without DNA / wild-type Sf9 cells; assay: Calcium response in control Sf9 cells (without DNA, lipid only, non-transfected, wild type); type: cell-based, Spodoptera frugiperda; details: Compound 5 3 μM
Description: as §1
Imaging studies were conducted using a Nikon Diaphot microscope with a 40× oil immersion objective (NA 1.3) Image acquisition and processing was performed using the MetaFluor™ imaging system from Universal Imaging Corporation (West Chester, Pa.) Calcium calibration was carried out using the Grynkiewicz equation with a dissociation constant (Kd) of 145 nM for Fura-2 (Grynkiewicz et al., 1985). Cell-attached coverslips were placed in a sealed chamber with physiological saline continuously perfused across the cells using a peristaltic pump. Test compounds solubilized in physiological saline were applied by switching the perfusate source.
as §2

[4] = molecular target: native cockroach ryanodine receptors (roach femoral muscle membranes) (Periplaneta americana, UniProt A0ABQ8T696); assay: Radioligand displacement ([3H]-GN analog Cpd 1) on roach femoral muscle membranes; type: binding; details: displacement of [3H]-Cpd 1, roach muscle membranes, 60 min at 32° C.; read-out: Displacement IC50 (nM) P. americana
Sequence of native cockroach ryanodine receptors (roach femoral muscle membranes) (A0ABQ8T696 entry or part of it): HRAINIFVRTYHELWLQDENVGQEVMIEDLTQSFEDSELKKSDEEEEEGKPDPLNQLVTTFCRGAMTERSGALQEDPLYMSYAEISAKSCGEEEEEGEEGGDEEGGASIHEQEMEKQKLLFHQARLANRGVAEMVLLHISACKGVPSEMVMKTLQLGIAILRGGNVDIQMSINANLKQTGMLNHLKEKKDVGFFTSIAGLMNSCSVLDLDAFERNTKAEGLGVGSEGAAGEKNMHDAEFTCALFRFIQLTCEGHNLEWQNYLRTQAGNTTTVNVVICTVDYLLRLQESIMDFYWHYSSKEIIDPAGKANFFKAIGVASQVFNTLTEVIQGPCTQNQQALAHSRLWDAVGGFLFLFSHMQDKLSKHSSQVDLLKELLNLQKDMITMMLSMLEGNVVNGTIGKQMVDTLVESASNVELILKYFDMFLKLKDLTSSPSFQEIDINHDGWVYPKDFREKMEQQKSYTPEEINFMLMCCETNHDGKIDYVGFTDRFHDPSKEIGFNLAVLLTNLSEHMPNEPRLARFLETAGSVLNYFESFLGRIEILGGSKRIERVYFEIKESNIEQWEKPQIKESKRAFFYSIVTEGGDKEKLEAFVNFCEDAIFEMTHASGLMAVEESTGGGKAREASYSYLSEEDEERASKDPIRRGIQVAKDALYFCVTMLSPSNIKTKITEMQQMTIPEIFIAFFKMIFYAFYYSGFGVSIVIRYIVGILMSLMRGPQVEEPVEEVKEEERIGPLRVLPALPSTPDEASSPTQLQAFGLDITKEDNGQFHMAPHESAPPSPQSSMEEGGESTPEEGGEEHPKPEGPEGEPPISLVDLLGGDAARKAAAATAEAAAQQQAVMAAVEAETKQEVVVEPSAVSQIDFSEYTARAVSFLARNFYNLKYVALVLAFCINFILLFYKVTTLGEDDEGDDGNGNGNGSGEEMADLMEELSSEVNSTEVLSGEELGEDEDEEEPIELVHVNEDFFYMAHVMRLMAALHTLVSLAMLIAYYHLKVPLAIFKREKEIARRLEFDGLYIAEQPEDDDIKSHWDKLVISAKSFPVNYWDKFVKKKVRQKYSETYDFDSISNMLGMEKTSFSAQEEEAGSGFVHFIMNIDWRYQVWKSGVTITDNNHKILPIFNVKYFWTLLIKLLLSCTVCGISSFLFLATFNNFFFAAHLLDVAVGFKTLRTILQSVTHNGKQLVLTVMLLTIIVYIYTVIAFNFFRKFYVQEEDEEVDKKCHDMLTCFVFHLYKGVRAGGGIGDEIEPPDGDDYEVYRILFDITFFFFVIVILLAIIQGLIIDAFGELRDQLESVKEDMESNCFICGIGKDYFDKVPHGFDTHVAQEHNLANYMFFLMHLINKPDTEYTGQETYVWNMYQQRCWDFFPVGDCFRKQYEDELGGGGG
Method: Binding to Roach Femoral Muscle Membranes:
Assays were carried out in triplicate.

With `Cc1cccc(C(=O)NC(C)C)c1NC(=O)c1cc(C(F)(F)F)nn1-c1ncccc1Cl` [Cpd 5, 1-(3-Chloro-2-pyridinyl)-N-[2-methyl-6-[[(1-methylethyl)amino]carbonyl]phenyl]-3-(trifluoromethyl)-1H-pyrazole-5-carboxamide] the “cytosolic [Ca2+] response” value [1] was “increase in cytosolic [Ca^2+]”, the “Calcium Release Threshold (nM) D. melanogaster” value [2] was <300 nM and the “calcium response in control cells without DNA” value [3] was “No significant calcium responses”. The IC50 [4] was < 300 nM.

Source: patent US7655395B2, “Isolation and use of ryanodine receptors” (E.I. du Pont de Nemours and Company, priority 2002, dated 2010)
